Where only a bound is given, the exact number is not on record here.

The test system of assay [1] is Thoracic aorta. As to the kind of experiment: Contractile activity in Sprague-Dawley rat thoracic aorta assessed as ratio of KCl-induced contraction to human U2-induced contraction in aortic ring at 3 x 10^-6 M (reference value: 101 +/- 4 %). The assay is classed as functional.
The test system of assay [2] is Thoracic aorta. Nature of the assay: Contractile activity in Sprague-Dawley rat thoracic aorta assessed as contraction in aortic ring preincubated ofr 30 mins followed by URP or human U2-stimulation. The assay is classed as functional, tissue-based.
The subject of assay [3] is Thoracic aorta. Nature of the assay: Contractile activity in Sprague-Dawley rat thoracic aorta assessed as ratio of KCl-induced contraction to human U2-induced contraction in aortic ring at 10^-11 to 3 x 10^-6 M relative to control. The assay is classed as functional.
In assay [4] the target is T1, Urotensin-2 receptor (Homo sapiens, UniProt Q9UKP6).
T1 sequence (Q9UKP6 whole entry): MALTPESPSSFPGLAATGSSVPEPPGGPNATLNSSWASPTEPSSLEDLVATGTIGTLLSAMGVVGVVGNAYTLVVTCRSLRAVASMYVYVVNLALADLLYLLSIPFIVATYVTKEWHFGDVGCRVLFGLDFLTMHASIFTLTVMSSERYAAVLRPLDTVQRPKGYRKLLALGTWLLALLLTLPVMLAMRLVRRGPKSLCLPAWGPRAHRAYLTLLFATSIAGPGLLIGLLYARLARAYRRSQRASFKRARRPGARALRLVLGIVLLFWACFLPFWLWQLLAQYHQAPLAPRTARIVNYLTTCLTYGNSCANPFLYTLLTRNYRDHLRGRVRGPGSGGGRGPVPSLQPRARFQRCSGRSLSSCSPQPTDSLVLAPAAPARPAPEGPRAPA
Nature of the assay: Antagonist activity at human UT receptor expressed in HEK293 cells using Na [125I] incubated for 2 hrs by gamma counting method. The assay is classed as cell-based.

In assay [5] the test system is Thoracic aorta. As to the kind of experiment: Contractile activity in Sprague-Dawley rat thoracic aorta assessed as ratio of KCl-induced contraction to human U2-induced contraction in aortic ring at 10^-6 M (reference value: 101 +/- 4 %). The assay is classed as functional.
Assay [6] deals with Thoracic aorta. As to the kind of experiment: Contractile activity in Sprague-Dawley rat thoracic aorta assessed as ratio of KCl-induced contraction to human U2-induced contraction in aortic ring at 10^-5 M (reference value: 101 +/- 4 %). The assay is classed as functional.
Assay [7] has as its system Thoracic aorta. Nature of the assay: Contractile activity in Sprague-Dawley rat thoracic aorta assessed as contraction in aortic ring preincubated ofr 30 mins followed by URP-stimulation (reference value: 8.16 +/- 0.08). The assay is classed as functional, tissue-based.
The subject of assay [8] is Thoracic aorta. Nature of the assay: Contractile activity in Sprague-Dawley rat thoracic aorta assessed as ratio of KCl-induced contraction to URP-induced contraction in aortic ring at 10^-5 M (reference value: 107 +/- 3 %). The class given is functional.
Assay [9] has as its system Thoracic aorta. As to the kind of experiment: Contractile activity in Sprague-Dawley rat thoracic aorta assessed as contraction in aortic ring preincubated ofr 30 mins followed by human U2-stimulation (reference value: 8.59 +/- 0.12). The class given is functional, tissue-based.
Assay [10] relates to Thoracic aorta. Nature of the assay: Contractile activity in Sprague-Dawley rat thoracic aorta assessed as ratio of KCl-induced contraction to URP-induced contraction in aortic ring at 10^-6 M (reference value: 107 +/- 3 %). The assay is classed as functional.
Assay [11] has as its system Thoracic aorta. As to the kind of experiment: Contractile activity in Sprague-Dawley rat thoracic aorta assessed as ratio of KCl-induced contraction to URP-induced contraction in aortic ring at 3 x 10^-6 M (reference value: 107 +/- 3 %). The class given is functional.
Assay [12] deals with Thoracic aorta. As to the kind of experiment: Contractile activity in Sprague-Dawley rat thoracic aorta assessed as contraction in aortic ring at 10^-5 M relative to control. The assay is classed as functional.

In the case of `CC(C)[C@H](NC(=O)[C@@H]1CSSC[C@H](NC(=O)[C@H](C)N)C(=O)N[C@@H](Cc2ccccc2)C(=O)N[C@@H](Cc2ccc(OCc3ccccc3)cc2)C(=O)N[C@@H](CCCCN)C(=O)N[C@@H](Cc2ccc(O)cc2)C(=O)N1)C(=O)O`, the Emax at 3 µM in [1] worked out at 80%. Also, the EC50 in assay [2] is above 3160 nM.

On to `CC(C)[C@H](NC(=O)[C@@H]1CSSC[C@H](NC(=O)[C@H](C)N)C(=O)N[C@@H](Cc2ccccc2)C(=O)N[C@@H](Cc2c[nH]c3ccccc23)C(=O)N[C@@H](CCCCN)C(=O)N[C@@H](Cc2ccc(O)cc2)C(=O)N1)C(=O)O`, for which the maximum response (Emax) in assay [3] came out at 107%. Further, the IC50 in assay [4] was 5.13 nM. Also, in [2], the EC50 was 6.92 nM.

With `CC(C)[C@H](NC(=O)[C@@H]1CSSC[C@H](NC(=O)[C@H](C)N)C(=O)N[C@@H](Cc2ccccc2)C(=O)N[C@@H](Cc2ccc(-c3ccc(-c4ccccc4)cc3)cc2)C(=O)N[C@@H](CCCCN)C(=O)N[C@@H](Cc2ccc(O)cc2)C(=O)N1)C(=O)O`, the figures for the Emax at 1 µM in [5] and in assay [10] were 79% and 99%, respectively. The Emax at 10 µM was 55% in [6] and 92% in assay [8]. The Emax in [3] worked out at 9%. In addition, the EC50 in [7] is 6.61 to 12 nM; in assay [9], 2.24 to 3.39 nM; in assay [2], 7.76 nM. For the same molecule, the IC50 in assay [4] was 135 nM. For the same molecule, the results for the Emax at 3 µM in assay [1] and in [11] were 65% and 95%, respectively.

With `CC(C)[C@H](NC(=O)[C@@H]1CSSC[C@H](NC(=O)[C@H](C)N)C(=O)N[C@@H](Cc2ccccc2)C(=O)N[C@@H](Cc2ccc(-c3ccsc3)cc2)C(=O)N[C@@H](CCCCN)C(=O)N[C@@H](Cc2ccc(O)cc2)C(=O)N1)C(=O)O`, the Emax at 1 µM in assay [5] worked out at 105%; in assay [10], 115%. The EC50 in [7] is 12.9 nM; in assay [9], 7.59 nM; in assay [2] it was above 3160 nM. The molecule also had an IC50 in assay [4] of 36.3 nM. For the same molecule, the Emax at 3 µM in assay [1] amounted to 20%.

In the case of `CC(C)[C@H](NC(=O)[C@@H]1CSSC[C@H](NC(=O)[C@H](C)N)C(=O)N[C@@H](Cc2ccccc2)C(=O)N[C@@H](Cc2ccc(-c3cccnc3)cc2)C(=O)N[C@@H](CCCCN)C(=O)N[C@@H](Cc2ccc(O)cc2)C(=O)N1)C(=O)O`, the Emax at 1 µM in [5] was determined as 94%; in assay [10], 102%. Besides, the half-maximal effective concentration (EC50) was 8.51 nM in [7], 2.09 nM in assay [9] and above 3160 nM in assay [2]. Also, 102 nM corresponded to half-maximal inhibition in assay [4] (IC50). In assay [1], the Emax at 3 µM was found to be 24%.

With `CC(C)[C@H](NC(=O)[C@@H]1CSSC[C@H](NC(=O)[C@H](C)N)C(=O)N[C@@H](Cc2ccccc2)C(=O)N[C@@H](Cc2ccc(-c3ccncc3)cc2)C(=O)N[C@@H](CCCCN)C(=O)N[C@@H](Cc2ccc(O)cc2)C(=O)N1)C(=O)O`, the Emax at 1 µM in assay [5] is 70%; in [10] it was 96%. Besides, the results for the concentration for a half-maximal effect (EC50) in [7], in assay [9] and in assay [2] were 2.95 to 6.46 nM, 1.41 to 4.47 nM and above 3160 nM, respectively. This molecule gave an IC50 in [4] of 155 nM. In addition, the maximal effect (Emax) at 3 µM is 5 to 25% in assay [1] and 94% in assay [11]. Also, the Emax at 10 µM in assay [8] stood at 92%; in [12], 9%.

With `CC(C)[C@H](NC(=O)[C@@H]1CSSC[C@H](NC(=O)[C@H](C)N)C(=O)NC(Cc2ccccc2)C(=O)N[C@H](Cc2ccc(I)cc2)C(=O)N[C@@H](CCCCN)C(=O)N[C@@H](Cc2ccc(O)cc2)C(=O)N1)C(=O)O` (stereo in doubt), the maximal effect (Emax) in assay [3] worked out at 114%. For the same molecule, half-maximal inhibition in assay [4] (IC50) was put at 2.45 nM. For the same molecule, in [2], the concentration giving a half-maximal response (EC50) was 28.8 nM.

On to `CC(C)[C@H](NC(=O)[C@@H]1CSSC[C@H](NC(=O)[C@H](C)N)C(=O)N[C@@H](Cc2ccccc2)C(=O)N[C@H](Cc2ccc(C#Cc3ccccc3)cc2)C(=O)N[C@@H](CCCCN)C(=O)N[C@@H](Cc2ccc(O)cc2)C(=O)N1)C(=O)O`, for which, in assay [3], the Emax is 99%. In addition, inhibition in assay [4] was half-maximal at 12 nM (IC50). Besides, in assay [2], the concentration giving a half-maximal response (EC50) is 28.2 nM.

Regarding `CC(C)[C@H](NC(=O)[C@@H]1CSSC[C@H](NC(=O)[C@H](C)N)C(=O)N[C@@H](Cc2ccccc2)C(=O)N[C@H](Cc2ccc(-c3ccccc3)cc2)C(=O)N[C@@H](CCCCN)C(=O)N[C@@H](Cc2ccc(O)cc2)C(=O)N1)C(=O)O`, in [3], the maximum response (Emax) came out at 97%. The molecule also had an IC50 in [4] of 3.16 nM. In [2], the EC50 was 47.9 nM.

(Values after ChEMBL document CHEMBL4619826, “Insights into the Molecular Determinants Involved in Urocontrin and Urocontrin A Action” (ACS Med Chem Lett, 2020).)
